How the values were obtained:
[1] = biological target: T1, human Prostaglandin F2α receptor (hFP) (Homo sapiens, UniProt P43088); experiment: In vitro functional assay 1: inhibition of Prostaglandin F2α induced IP3 synthesis in HEK/EBNA cells; assay type: cell-based; conditions: tested on human Prostaglandin F2α; 30 nM PGF2α stimulation; read-out: EC50 value, antagonism of Prostaglandin F2α-induced IP3-synthesis
T1 construct: expressed in transfected cells; host or cells: 293-EBNA cells
Description: 1) In Vitro Functional Assay 1: Inhibition of Prostaglandin F2α Induced IP3 (Inositol Triphosphate) Synthesis in HEK/EBNA-Cells Expressing the Prostaglandin F2α Receptor
The interaction of Prostaglandin F2α with its receptor leads to IP3 synthesis, a second messenger for Ca^2+ release from sarcoplasmatic reticulum, involved in the process triggering uterine contractions. The present assay described hereinafter can be used to show the inhibition of the Prostaglandin F2α/Prostaglandin F2α receptor mediated IP3 synthesis by test compounds of formula (I).
293-EBNA cells and pCEP4 vector were purchased from Invitrogen; Fetal Bovine Serum from Cansera; Hygromycin B from Roche Molecular Biochemicals; DMEM-F12 medium, L-Glutamine from Life Technologies Inc.; [^3H] Inositol from Perkin Elmer Life Sciences; Prostaglandin F2α (PGF2α) from Sigma, AG1-X8 chromatography columns from BioRad, 96 well black/white plates from Corning Inc. […]
In the course of the three above mentioned experiments, the reaction was stopped by addition of 1 ml of stop solution (2.4% perchloric acid) for 10 min. […] The IP3 to be quantified were eluted with 3 ml elution buffer (1M ammonium formate, 0.1 M formic acid) and radioactivity was counted on a Beckman LS6000TA scintillation counter to measure the amount of phosphorylated [^3H] inositol.

[2] = biological target: T2, human Prostaglandin F2α receptor (Homo sapiens, UniProt P43088); experiment: In vitro functional assay 2: inhibition of Prostaglandin F2α induced Ca2+-mobilization in HEK EBNA cells (FLIPR); assay type: cell-based; set-up: expressed in transfected cells; host or cells: HEK EBNA cells; conditions: HEK EBNA cells expressing the human Prostaglandin F2α receptor
Description: 2) In Vitro Functional Assay 2: Inhibition of Prostaglandin F2α Induced Ca^2+-Mobilization in HEK/EBNA-Cell Expressing the Prostaglandin F2α Receptor, as Measured by FLIPR® (Fluorimetric Imaging Plate Reader).
HEK EBNA cells were seeded at 60000 cells/well in a Poly-L-Lysine precoated black/white bottom 96 well plate. 24 hours later cells were loaded with […] Fluo-4 in DMEM-F12 without fetal calf serum for 1-2 hours at 37° C. For Prostaglandin F2α dose response or agonist activity measurement of compounds—after a wash with FLIPR buffer (10 mM Hepes, 145 mM NaCl, 5 mM KCl, 1 mM MgCl2, 10 mM glucose, pH 7.4)—cells were stimulated with increasing concentration of Prostaglandin F2α or test compounds of formulae (I), (II) and (III).
Calcium mobilisation was then measured on the FLIPR for 4 min. For IC50 determination of the molecules, increasing concentrations of test compounds were added to the cells 30 min prior to the washing step. After the wash with FLIPR buffer, increasing concentrations of test compounds were added to the cells in FLIPR buffer and calcium mobilisation was measured for 1 min. Then the cells were stimulated with a concentration of 2 times the EC50 of Prostaglandin F2α and calcium mobilisation was measured for 4 min.

[3] = biological target: T2, human Prostaglandin F2α receptor; experiment: In vitro competition binding assay with Scintillation Proximity Assay (SPA); set-up: Human Prostaglandin F2α receptor (full-length cDNA) was subcloned into the pCEP4 (Invitrogen) vector; expressed in transfected cells; host or cells: HEK 293 EBNA cells (membrane preparation); conditions: Prostaglandin F2α as radioligand, membranes of HEK 293 EBNA cells, read-out: Binding affinity for human Prostaglandin F2α receptor Ki
Description: In vitro competition binding assay with Scintillating Proximity Assay (SPA) (see Pharmaceutical Manufacturing International, 1992, p. 49-53 by Cook, N. D. et al)
This assay allows to determine the binding affinity of the test compounds of formula (II) for the human Prostaglandin F2α receptor
Human Prostaglandin F2α receptor (full-length cDNA) was subcloned into the pCEP4 (Invitrogen) vector and transfected together with the hygromycin resistance gene into HEK 293 EBNA cells by Calcium-phosphate co-precipitation method. Antibiotic resistant cells were grown under constant selection pressure in DMEM/F-12 medium supplemented with 2% fetal calf serum, 4 mM L-Glutamine and 8 ml/l Insulin-Transferrin-Selenium-mix (all Invitrogen) and 300 μg/ml hygromycin at 37° C. in a humidified atmosphere of 5% CO2 in air. At 48 h before harvesting, receptor expression was enhanced by adding 5 mM of Na-butyrate. Cells were washed twice with phosphate buffer saline, harvested and pelleted by centrifugation.
Cell pellet was lysed by Dounce homogenisation in 250 mM sucrose, 25 mM Tris-HCl pH 7.5, 10 mM MgCl2, 1 mM EDTA containing proteases inhibitors according to the manufacturer (Boehringer Mannheim) at 4° C. The lysate was centrifuged at 1000 g, 4° C. for 10 min and the supernatant was centrifuged at 160000 g, 4° C. for 60 min. […]
In vitro competition binding with Scintillation proximity assay (SPA) was performed in Corning NBS 96 wells plates. Briefly, 100 μl of binding buffer containing 15 to 30 μg of purified membranes, 4 mg/ml of wheat-germ agglutinin (WGA) SPA beads and 1 to 2 nM of ^3H PGF2-alpha (determined by Scatchard analysis) in 1% DMSO was incubated for 2 hours at room temperature. Non-specific binding was determined in the presence of 1 μM of non-radioactive Prostaglandin F2α. […] The radioactivity was counted on a Microbeta plate counter and the binding data were analysed using the iterative, non-linear, curve-fitting program, “Prism” (GraphPad Software, Inc).

[4] = system: Spontaneous uterine contractions in late-term pregnant rats; experiment: In vivo assay: reduction of spontaneous uterine contractions in late-term pregnant rats; set-up: species or system rat; conditions: i.v. route (infusion over 10 minutes), dose of 3 mg/kg/min, anesthetised late-term pregnant Sprague Dawley rats, AUC of intra-luminal uterine pressure vs basal
Description: 3) In Vivo Assay: Reduction of Uterine Contractile Activity in Rats
Spontaneous Uterine Contractions in Late-Term Pregnant Rats:
Late-term pregnant (19-21 days of gestation) Sprague Dawley female rats (Charles River, Calco, Italy) weighing 350-400 g were anesthetised with urethane (1.05 g/kg, i.p.) and placed on a homeothermic operating table. The trachea was isolated and cannulated with a suitable polyethylene (PE) tubing. A midline incision at the hypogastrium level was made, one pregnant uterine horn exposed and its tubal end closed (near the ovary) by a ligature with surgical silk. […]
The spontaneous contractile response of the uterus was quantified by evaluating the area under the curve (AUC) of the changes in the intra-luminal uterine pressure over time (by Chart V4.04 for Windows software, PowerLab AD Instruments, Castle Hill, Australia). The effect of the test compound on the spontaneous uterine contraction was evaluated as the percent variation of the AUC calculated in a 10-min interval following the administration of each dose of test compound as compared to the AUC in a 10-min interval before the administration of the first dose of test compound (basal value). When possible, a dose-response curve (of peak effect) was plotted and the relative ED50 value calculated (by S-Plus 2000 v. 4.6 statistical software, Mathsoft, Inc. Seattle, Wash., USA).

T2 sequence (P43088 whole entry): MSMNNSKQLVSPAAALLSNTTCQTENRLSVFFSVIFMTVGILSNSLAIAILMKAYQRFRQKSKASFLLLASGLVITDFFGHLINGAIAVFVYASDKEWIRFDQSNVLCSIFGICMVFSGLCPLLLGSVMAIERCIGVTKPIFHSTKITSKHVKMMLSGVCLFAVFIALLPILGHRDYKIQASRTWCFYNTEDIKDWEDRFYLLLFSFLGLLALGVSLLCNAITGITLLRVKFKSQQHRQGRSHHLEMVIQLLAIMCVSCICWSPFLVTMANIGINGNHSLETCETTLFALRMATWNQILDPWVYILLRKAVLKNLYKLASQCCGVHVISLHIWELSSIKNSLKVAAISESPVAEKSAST
T1 sequence (P43088 whole entry): as above

Row | IC50 [2] | Ki [3] | Molecule | also measured
1 | 4750 nM | 1150 nM | CN(CC(O)c1ccccc1)C(=O)[C@H]1CN(C(=O)Nc2ccc(Oc3ccccc3)cc2)CCN1S(=O)(=O)c1ccccc1 (stereo partly drawn) [Example 16, (3R)—N˜3˜-(2-hydroxy-2-phenylethyl)-N˜3˜-methyl-N˜1˜-(4-phenoxy-phenyl)-4-(phenylsulfonyl)piperazine-1,3-dicarboxamide] | 
2 |  | 125 nM | C=CCNC(=O)[C@@H]1CN(S(=O)(=O)c2ccc(C(C)(C)C)cc2)CCN1S(=O)(=O)c1cccc2cccnc12 [drawing 66, (2S)-4-[(4-tert-butylphenyl)-sulfonyl]-N-prop-2-enyl-1-(quinolin-8-yl-sulfonyl)piperazine-2-carboxamide] | 

The remaining lines, values behind:

Row | Molecule | IC50 [2] | Ki [3] | also measured
3 | C=CCNC(=O)[C@H]1CN(S(=O)(=O)c2ccc(C(C)(C)C)cc2)CCN1S(=O)(=O)c1cccc2cccnc12.Cl |  |  | melting point: 126 to 129 °C
4 | C=CCNC(=O)[C@@H]1CN(S(=O)(=O)c2ccc(C(C)(C)C)cc2)CCN1S(=O)(=O)c1cccc2cccnc12 [Example 8, (2S)-4-[(4-tert-butylphenyl)sulfonyl]-N-Drop-2-enyl-1-(quinolin-8-ylsulfonyl)piperazine-2-carboxamide] |  |  | EC50 [1]: 24 nM
5 | C=CCNC(=O)c1cc(C(C)(C)C)ccc1S(=O)(=O)c1cccc2cccnc12 [[5-(tert-butyl)-2-(8-quinolylsulfonyl)phenyl]-N-prop-2-enylcarboxamide] |  |  | inhibition of uterine contractions [4]: 56.1%
6 | (3S)-4-(3-chlorobenzoyl)-N˜1˜-(3,4-dichlorophenyl)-N˜3˜-[(1S)-2,3-dihydro-1H-inden-1-yl]piperazine-1,3-dicarboxamide [Example 21] | 495 nM | 816 nM | 

Source: patent US8404690B2, “Piperazine-2-carboxamide derivatives” (Merck Serono SA, priority 2003, dated 2013)
